In PMC5218480 (PLoS ONE, 2017):

System: MV-4-11 cells
Assay: Gene expression microarray analysis (Affymetrix PrimeView) and GSEA
Format: cell-based, human
Parameters: RFU PODN (11730768_x_at) / Fold change /veh PODN (11730768_x_at) / RFU LINC00158 (11744669_a_at) / Fold change /veh LINC00158 (11744669_a_at) / RFU DUSP10 (11751237_a_at) / Fold change /veh DUSP10 (11751237_a_at) / RFU ID3 (11757404_x_at) / Fold change /veh ID3 (11757404_x_at) / RFU PLEKHG5 (11737974_s_at) / Fold change /veh PLEKHG5 (11737974_s_at) / RFU LRRC4B (11730491_at) / Fold change /veh LRRC4B (11730491_at) / RFU GIMAP4 (11747438_a_at) / Fold change /veh GIMAP4 (11747438_a_at) / RFU KRT8 (11758183_x_at) / Fold change /veh KRT8 (11758183_x_at) / RFU CNN1 (11734310_a_at) / Fold change /veh CNN1 (11734310_a_at) / RFU VPS37D (11726825_at) / Fold change /veh VPS37D (11726825_at) / RFU C10orf10 (11716522_x_at) / Fold change /veh C10orf10 (11716522_x_at) / RFU KIR2DL2 /// KIR2DL4 /// KIR2DL5A /// KIR2DL5B /// KIR2DS1 /// KIR2DS2 /// KIR2DS3 /// KIR2DS4 /// KIR3DL3 /// KIR3DL3 /// KIR3DS1 (11738374_at) / Fold change /veh KIR2DL2 /// KIR2DL4 /// KIR2DL5A /// KIR2DL5B /// KIR2DS1 /// KIR2DS2 /// KIR2DS3 /// KIR2DS4 /// KIR3DL3 /// KIR3DL3 /// KIR3DS1 (11738374_at) / RFU C1QL1 (11718748_at) / Fold change /veh C1QL1 (11718748_at) / RFU TMPRSS4 (11747572_a_at) / Fold change /veh TMPRSS4 (11747572_a_at) / RFU HAMP (11756126_x_at) / Fold change /veh HAMP (11756126_x_at) / RFU RNFT2 (11725882_a_at) / Fold change /veh RNFT2 (11725882_a_at) / RFU NR4A2 (11747474_a_at) / Fold change /veh NR4A2 (11747474_a_at) / RFU ABCC12 (11746883_a_at) / Fold change /veh ABCC12 (11746883_a_at) / RFU TMEM136 (11760407_x_at) / Fold change /veh TMEM136 (11760407_x_at) / RFU CLDN22 /// WWC2 (11732394_at) / Fold change /veh CLDN22 /// WWC2 (11732394_at) / RFU HLA-DPB1 (11760878_x_at) / Fold change /veh HLA-DPB1 (11760878_x_at) / RFU SPINT1 (11716480_a_at) / Fold change /veh SPINT1 (11716480_a_at) / RFU GAP43 (11754022_s_at) / Fold change /veh GAP43 (11754022_s_at) / RFU A4GNT (11735810_at) / Fold change /veh A4GNT (11735810_at) / RFU PRB3 (11715151_x_at) / Fold change /veh PRB3 (11715151_x_at) / RFU TUBB4B (11761932_at) / Fold change /veh TUBB4B (11761932_at) / RFU CAPN14 (11732068_a_at) / Fold change /veh CAPN14 (11732068_a_at) / RFU TMCC2 (11721928_a_at) / Fold change /veh TMCC2 (11721928_a_at) / RFU IRGQ (11745062_a_at) / Fold change /veh IRGQ (11745062_a_at) / RFU FAM174B (11720279_a_at) / Fold change /veh FAM174B (11720279_a_at) / RFU TMPRSS4 (11748680_a_at) / Fold change /veh TMPRSS4 (11748680_a_at) / RFU FAM212B (11763350_a_at) / Fold change /veh FAM212B (11763350_a_at) / RFU PLEKHG5 (11743358_a_at) / Fold change /veh PLEKHG5 (11743358_a_at) / RFU ZSCAN30 (11745921_a_at) / Fold change /veh ZSCAN30 (11745921_a_at) / RFU CMKLR1 (11741424_a_at) / Fold change /veh CMKLR1 (11741424_a_at) / RFU LOC101060620 /// MAPK8IP1 (11723275_at) / Fold change /veh LOC101060620 /// MAPK8IP1 (11723275_at) / RFU SPTSSB (11747773_x_at) / Fold change /veh SPTSSB (11747773_x_at) / RFU PRSS12 (11739890_at) / Fold change /veh PRSS12 (11739890_at) / RFU BIN1 (11741810_x_at) / Fold change /veh BIN1 (11741810_x_at) / RFU WNT11 (11732464_a_at) / Fold change /veh WNT11 (11732464_a_at) / RFU C10orf10 (11716521_a_at) / Fold change /veh C10orf10 (11716521_a_at) / RFU C5orf56 (11738089_at) / Fold change /veh C5orf56 (11738089_at) / RFU CYB561 (11721691_x_at) / Fold change /veh CYB561 (11721691_x_at) / RFU ANKRD19P (11752326_a_at) / Fold change /veh ANKRD19P (11752326_a_at) / RFU OR2T12 /// OR2T33 /// OR2T8 (11738714_s_at) / Fold change /veh OR2T12 /// OR2T33 /// OR2T8 (11738714_s_at) / RFU VCAN (11748164_a_at) / Fold change /veh VCAN (11748164_a_at) / RFU JSRP1 (11732532_at) / Fold change /veh JSRP1 (11732532_at) / RFU KRTAP10-11 (11738290_x_at) / Fold change /veh KRTAP10-11 (11738290_x_at) / RFU MYO3A (11730013_a_at) / Fold change /veh MYO3A (11730013_a_at) / RFU EBF3 (11725865_a_at) / Fold change /veh EBF3 (11725865_a_at) / RFU CAMK2N1 (11719241_x_at) / Fold change /veh CAMK2N1 (11719241_x_at) / RFU C5orf56 (11738088_a_at) / Fold change /veh C5orf56 (11738088_a_at) / RFU OLFML3 (11715873_a_at) / Fold change /veh OLFML3 (11715873_a_at) / RFU LOC100653217 /// NTM (11731650_a_at) / Fold change /veh LOC100653217 /// NTM (11731650_a_at) / RFU MAPK11 (11762145_a_at) / Fold change /veh MAPK11 (11762145_a_at) / RFU FIZ1 (11724087_x_at) / Fold change /veh FIZ1 (11724087_x_at) / RFU OASL (11726364_x_at) / Fold change /veh OASL (11726364_x_at) / RFU SOX15 (11748057_x_at) / Fold change /veh SOX15 (11748057_x_at) / RFU CD79A (11719716_a_at) / Fold change /veh CD79A (11719716_a_at) / RFU HIST1H1D (11736915_at) / Fold change /veh HIST1H1D (11736915_at) / RFU CASKIN2 (11723855_a_at) / Fold change /veh CASKIN2 (11723855_a_at) / RFU LOC730098 (11760151_x_at) / Fold change /veh LOC730098 (11760151_x_at) / RFU OR4N2 (11742367_at) / Fold change /veh OR4N2 (11742367_at) / RFU PRRT2 (11749266_a_at) / Fold change /veh PRRT2 (11749266_a_at) / RFU SNX32 (11753110_a_at) / Fold change /veh SNX32 (11753110_a_at) / RFU CDHR5 (11726645_a_at) / Fold change /veh CDHR5 (11726645_a_at) / RFU RCAN1 (11760418_a_at) / Fold change /veh RCAN1 (11760418_a_at) / RFU FAM167A (11723789_a_at) / Fold change /veh FAM167A (11723789_a_at) / RFU FAM26E (11764081_at) / Fold change /veh FAM26E (11764081_at) / RFU ISYNA1 (11749810_s_at) / Fold change /veh ISYNA1 (11749810_s_at) / RFU ACY1 (11761880_at) / Fold change /veh ACY1 (11761880_at) / RFU 11764098_at / Fold change /veh 11764098_at / RFU SAMD14 (11745864_x_at) / Fold change /veh SAMD14 (11745864_x_at) / RFU NPB (11741838_a_at) / Fold change /veh NPB (11741838_a_at) / RFU TMPRSS6 (11731388_a_at) / Fold change /veh TMPRSS6 (11731388_a_at) / RFU KRTAP10-2 (11738614_at) / Fold change /veh KRTAP10-2 (11738614_at) / RFU ARHGAP8 /// PRR5-ARHGAP8 (11727945_x_at) / Fold change /veh ARHGAP8 /// PRR5-ARHGAP8 (11727945_x_at) / RFU KRTAP5-7 /// NADSYN1 (11734609_at) / Fold change /veh KRTAP5-7 /// NADSYN1 (11734609_at) / RFU RASL12 (11751679_a_at) / Fold change /veh RASL12 (11751679_a_at) / RFU CDKN2B (11736163_a_at) / Fold change /veh CDKN2B (11736163_a_at) / RFU PRF1 (11729649_at) / Fold change /veh PRF1 (11729649_at) / RFU, ZNF638 /// ZNF638-IT1 / Fold change vs veh, ZNF638 /// ZNF638-IT1 / RFU, PANK3 / Fold change vs veh, PANK3 / RFU, SH3YL1 / Fold change vs veh, SH3YL1 / RFU, ZEB2 / Fold change vs veh, ZEB2 / RFU, NRIP1 / Fold change vs veh, NRIP1 / RFU, PTTG1IP / Fold change vs veh, PTTG1IP / RFU, CAPN2 / Fold change vs veh, CAPN2 / RFU, MED14 / Fold change vs veh, MED14 / RFU, SNORA58 / Fold change vs veh, SNORA58 / RFU, C1orf63 / Fold change vs veh, C1orf63 / RFU, LRRFIP1 / Fold change vs veh, LRRFIP1 / RFU, NDUFAF7 / Fold change vs veh, NDUFAF7 / RFU, SLC12A2 / Fold change vs veh, SLC12A2 / RFU, IBTK / Fold change vs veh, IBTK / RFU, ESF1 / Fold change vs veh, ESF1 / Fold change vs veh, TMEM50B / RFU, TAOK1 / Fold change vs veh, TAOK1 / RFU, ACBD3 / Fold change vs veh, ACBD3 / RFU, TMA16 / Fold change vs veh, TMA16 / RFU, RWDD3 / Fold change vs veh, RWDD3 / RFU, BCAT1 / Fold change vs veh, BCAT1 / RFU, EDEM3 / Fold change vs veh, EDEM3 / RFU, TMEM33 / Fold change vs veh, TMEM33 / RFU, WDR75 / Fold change vs veh, WDR75 / RFU, AHCTF1 / Fold change vs veh, AHCTF1 / RFU, TFRC / Fold change vs veh, TFRC / RFU, ZDHHC17 / Fold change vs veh, ZDHHC17 / RFU, NOM1 / Fold change vs veh, NOM1 / RFU, ARL8B / Fold change vs veh, ARL8B / RFU, ZBTB11 / Fold change vs veh, ZBTB11 / RFU, TAMM41 / Fold change vs veh, TAMM41 / RFU, KIAA1704 /// LOC100996395 / Fold change vs veh, KIAA1704 /// LOC100996395 / RFU, ING1 / Fold change vs veh, ING1 / RFU, TRMT61B / Fold change vs veh, TRMT61B / RFU, FUBP3 / Fold change vs veh, FUBP3 / RFU, TP53 / Fold change vs veh, TP53 / RFU, TNKS2 / Fold change vs veh, TNKS2 / RFU, ZFP14 / Fold change vs veh, ZFP14 / RFU, ACTR2 / Fold change vs veh, ACTR2 / RFU, PPP3R1 / Fold change vs veh, PPP3R1 / RFU, PIK3R1 / Fold change vs veh, PIK3R1 / RFU, HNRNPA1 / Fold change vs veh, HNRNPA1 / RFU, RNF170 / Fold change vs veh, RNF170 / RFU, ZNF28 / Fold change vs veh, ZNF28 / RFU, RNGTT / Fold change vs veh, RNGTT / RFU, OGT / Fold change vs veh, OGT / RFU, BRD1 / Fold change vs veh, BRD1 / RFU, MARS / Fold change vs veh, MARS / RFU, ZNF655 / Fold change vs veh, ZNF655 / RFU, FAHD1 / Fold change vs veh, FAHD1 / RFU, BDP1 / Fold change vs veh, BDP1 / RFU, LRRCC1 / Fold change vs veh, LRRCC1 / RFU, ARID1A / Fold change vs veh, ARID1A / RFU, ZNF146 / Fold change vs veh, ZNF146 / RFU, ZNF330 / Fold change vs veh, ZNF330 / RFU, GPN3 / Fold change vs veh, GPN3 / RFU, C9orf123 / Fold change vs veh, C9orf123 / RFU, N4BP2L2 / Fold change vs veh, N4BP2L2 / RFU, ARFIP1 / Fold change vs veh, ARFIP1 / RFU, FAM179B / Fold change vs veh, FAM179B / RFU, BCL10 / Fold change vs veh, BCL10 / RFU, UHRF1BP1L / Fold change vs veh, UHRF1BP1L / RFU, BET1 / Fold change vs veh, BET1 / RFU, CNOT2 / Fold change vs veh, CNOT2 / RFU, ZNF268 / Fold change vs veh, ZNF268 / Fold change vs veh, ZNF507 / RFU, DGCR2 / Fold change vs veh, DGCR2 / RFU, WDSUB1 / Fold change vs veh, WDSUB1 / Fold change vs veh, HSP90B1 /// MIR3652 / RFU, ADSS / Fold change vs veh, ADSS / RFU, GK / Fold change vs veh, GK / RFU, ZNF148 / Fold change vs veh, ZNF148 / RFU, TAF9 / Fold change vs veh, TAF9 / RFU, SLC1A5 / Fold change vs veh, SLC1A5 / RFU, SLMO2 / Fold change vs veh, SLMO2 / RFU, ABCC4 / Fold change vs veh, ABCC4 / RFU, LOC101060439 /// RAP1B / Fold change vs veh, LOC101060439 /// RAP1B / RFU, RFX7 / Fold change vs veh, RFX7 / RFU, GTPBP10 / Fold change vs veh, GTPBP10 / RFU, CNEP1R1 / Fold change vs veh, CNEP1R1 / RFU, BIVM-ERCC5 /// ERCC5 / Fold change vs veh, BIVM-ERCC5 /// ERCC5 / RFU, ILF3 / Fold change vs veh, ILF3 / RFU 11762660_at / Fold change /veh 11762660_at / RFU VCAN (11757783_s_at) / Fold change /veh VCAN (11757783_s_at) / RFU DDX43 (11728927_at) / Fold change /veh DDX43 (11728927_at) / RFU KRT8 (11758188_x_at) / Fold change /veh KRT8 (11758188_x_at) / RFU NKD1 (11759106_at) / Fold change /veh NKD1 (11759106_at) / RFU SRD5A1 (11742802_a_at) / Fold change /veh SRD5A1 (11742802_a_at) / RFU TPSAB1 /// TPSB2 (11721975_s_at) / Fold change /veh TPSAB1 /// TPSB2 (11721975_s_at) / RFU GSTM3 (11746129_a_at) / Fold change /veh GSTM3 (11746129_a_at) / RFU IL23R (11737362_x_at) / Fold change /veh IL23R (11737362_x_at) / RFU TMEM51 (11727254_a_at) / Fold change /veh TMEM51 (11727254_a_at) / RFU PIWIL2 (11732686_x_at) / Fold change /veh PIWIL2 (11732686_x_at) / RFU ORM1 (11744905_x_at) / Fold change /veh ORM1 (11744905_x_at) / RFU CCDC152 (11743942_at) / Fold change /veh CCDC152 (11743942_at) / RFU ECM1 (11717891_a_at) / Fold change /veh ECM1 (11717891_a_at) / RFU IL23R (11748794_a_at) / Fold change /veh IL23R (11748794_a_at) / RFU TNFAIP8L3 (11732012_x_at) / Fold change /veh TNFAIP8L3 (11732012_x_at) / RFU MBOAT4 (11741988_at) / Fold change /veh MBOAT4 (11741988_at) / RFU 11764193_at / Fold change /veh 11764193_at / RFU TMEM53 (11763286_at) / Fold change /veh TMEM53 (11763286_at) / RFU MAGEB2 (11727129_at) / Fold change /veh MAGEB2 (11727129_at) / RFU TMEM200A (11744735_a_at) / Fold change /veh TMEM200A (11744735_a_at) / RFU CCDC152 (11751479_a_at) / Fold change /veh CCDC152 (11751479_a_at) / RFU FAM211A (11726209_a_at) / Fold change /veh FAM211A (11726209_a_at) / RFU RGS16 (11746705_a_at) / Fold change /veh RGS16 (11746705_a_at) / RFU VCAN (11755009_s_at) / Fold change /veh VCAN (11755009_s_at) / RFU RHOB (11743442_s_at) / Fold change /veh RHOB (11743442_s_at) / RFU RGS16 (11720943_a_at) / Fold change /veh RGS16 (11720943_a_at) / RFU RGS16 (11720944_at) / Fold change /veh RGS16 (11720944_at) / RFU, VPS4B / Fold change vs veh, VPS4B / RFU, CREB1 / Fold change vs veh, CREB1 / RFU, DNAJC13 / Fold change vs veh, DNAJC13 / RFU, GNAQ / Fold change vs veh, GNAQ / RFU, CDK5R1 / Fold change vs veh, CDK5R1 / RFU, ZRANB3 / Fold change vs veh, ZRANB3 / RFU, CUL4A / Fold change vs veh, CUL4A / RFU, CCNY / Fold change vs veh, CCNY / RFU, UFL1 / Fold change vs veh, UFL1 / RFU, COG3 / Fold change vs veh, COG3 / RFU, DIAPH2 / Fold change vs veh, DIAPH2 / RFU, SKA2 / Fold change vs veh, SKA2 / RFU, AFF3 / Fold change vs veh, AFF3 / RFU, LMF1 / Fold change vs veh, LMF1 / RFU, IPO11 / Fold change vs veh, IPO11 / RFU, DFFB / Fold change vs veh, DFFB / RFU, FOXP1 / Fold change vs veh, FOXP1 / RFU, CARD8 / Fold change vs veh, CARD8 / RFU, STRN3 / Fold change vs veh, STRN3 / RFU, ADK / Fold change vs veh, ADK / RFU, RASSF2 / Fold change vs veh, RASSF2 / RFU, WIPF1 / Fold change vs veh, WIPF1 / RFU, LARP1B / Fold change vs veh, LARP1B / RFU, RASA1 / Fold change vs veh, RASA1 / RFU, RB1 / Fold change vs veh, RB1 / RFU, PPFIA1 / Fold change vs veh, PPFIA1 / RFU, MAT2A / Fold change vs veh, MAT2A / RFU, CCT5 / Fold change vs veh, CCT5 / RFU, WDR92 / Fold change vs veh, WDR92 / RFU, CUX1 / Fold change vs veh, CUX1 / RFU, TTC7A / Fold change vs veh, TTC7A / RFU, TMEM135 / Fold change vs veh, TMEM135 / RFU, DEPTOR / Fold change vs veh, DEPTOR / RFU, CPM / Fold change vs veh, CPM / RFU, DNAJB6 / Fold change vs veh, DNAJB6 / RFU, CACNA2D3 / Fold change vs veh, CACNA2D3 / RFU, DTX4 / Fold change vs veh, DTX4 / RFU, TFCP2 / Fold change vs veh, TFCP2 / RFU, GMCL1 /// GMCL1P1 / Fold change vs veh, GMCL1 /// GMCL1P1 / RFU, AEBP2 / Fold change vs veh, AEBP2 / RFU, SNHG1 /// SNORD22 /// SNORD25 /// SNORD26 /// SNORD27 /// SNORD28 /// SNORD29 /// SNORD31 / Fold change vs veh, SNHG1 /// SNORD22 /// SNORD25 /// SNORD26 /// SNORD27 /// SNORD28 /// SNORD29 /// SNORD31 / Fold change (Aza/veh), C12orf56 (ProbeSet 11735607_a_at) / Fold change (ACY-1035/veh), C12orf56 (ProbeSet 11735607_a_at) / Fold change (Aza/veh), FGFR1OP (ProbeSet 11751329_s_at) / Fold change (ACY-1035/veh), FGFR1OP (ProbeSet 11751329_s_at) / Fold change (Aza/veh), VPS36 (ProbeSet 11739960_a_at) / Fold change (ACY-1035/veh), VPS36 (ProbeSet 11739960_a_at) / RFU SYPL1 (11715823_x_at) / Fold change /veh SYPL1 (11715823_x_at) / RFU IGFBP7 (11715501_s_at) / Fold change /veh IGFBP7 (11715501_s_at) / RFU REEP3 (11722064_at) / Fold change /veh REEP3 (11722064_at) / RFU IGLL1 (11728026_x_at) / Fold change /veh IGLL1 (11728026_x_at): dose or concentration left out as unconfirmed
Conditions: MV-4-11 cells, 48 hours

Nc1ncn([C@@H]2O[C@H](CO)[C@@H](O)[C@H]2O)c(=O)n1 [azacitidine]
RFU REEP3 (11722064_at): 27.20 RFU
